The text below walks through data of US8912121B2, “Herbicidal compositions comprising 4-amino-3-chloro-5-fluoro-6-(4-chloro-2-fluoro-3-methoxyphenyl)pyridine-2-carboxylic acid or a derivative thereof and certain PS II inhibitors” (Dow Agrosciences LLC, priority 2012, dated 2014).

The test system of this test is SCPMA (Schoenoplectus maritimus, sea clubrush). Description: In-water applied mixtures, transplanted paddy rice, greenhouse. Type of test: in vivo, Schoenoplectus maritimus (L.) Lye. The method, then: Weed seeds or nutlets of the desired test plant species were planted in puddled soil (mud) prepared by mixing a shredded, non-sterilized mineral soil (50.5 percent silt, 25.5 percent clay, and 24 percent sand, with a pH of about 7.6 and an organic matter content of about 2.9 percent) and water at a 1:1 volumetric ratio. The prepared mud was dispensed in 365 mL aliquots into 16-ounce (oz.) non-perforated plastic pots with a surface area of 86.59 square centimeters (cm^2) leaving a headspace of 3 centimeters (cm) in each pot Mud was allowed to dry overnight prior to planting or transplanting. Rice seeds were planted in Sun Gro MetroMix® 306 planting mixture, which typically has a pH of 6.0 to 6.8 and an organic matter content of about 30 percent, in plastic plug trays. Seedlings at the second or third leaf stage of growth were transplanted into 840 mL of mud contained in 32-oz. non-perforated plastic pots with a surface area of 86.59 cm^2 4 days prior to herbicide application. The paddy was created by filling the headspace of the pots with 2.5 to 3 cm of water. When required to ensure good germination and healthy plants, a fungicide treatment and/or other chemical or physical treatment was applied. The plants were grown for 4-22 days in a greenhouse with an approximate 14 h photoperiod which was maintained at about 29° C during the day and 26° C. during the night. Nutrients were added as Osmocote® (19:6:12, N:P:K+ minor nutrients) at 2 g per 16-oz. pot and 4 g per 32-oz. pot. Water was added on a regular basis to maintain the paddy flood, and supplemental lighting was provided with overhead metal halide 1000-Watt lamps as necessary. The plants were employed for testing when they reached the first through fourth true leaf stage.
Treatments consisted of the acid or esters of 4-amino-3-chloro-5-fluoro-6-(4-chloro-2-fluoro-3-methoxy-phenyl)pyridine-2-carboxylic acid (compound A) each formulated as an SC (suspension concentrate) and various herbicidal components alone and in combination. Forms of compound A were applied on an acid equivalent basis.
Other herbicidal components were applied on an active ingredient basis and included photosystem II (PSII)-inhibits propanil formulated as […] bentazon-sodium formulated as Basagran®, and simetryne (technical grade material).
Treatment requirements for each compound or herbicidal component were calculated based upon the rates being tested, the concentration of active ingredient or acid equivalent in the formulation, an application volume of 2 mL per component per pot, and an application area of 86.59 cm^2 per pot.
For formulated compounds, a measured amount was placed in an individual 100 or 200 mL glass vial and was dissolved in a volume of 1.25% (v/v) Agri-Dex® crop oil concentrate to obtain application solutions.
For technical grade compounds, a weighed amount was placed in an individual 100 to 200 mL glass vial and was dissolved in a volume of acetone to obtain concentrated stock solutions. […] The concentrated stock solutions obtained were diluted with an equivalent volume of an aqueous mixture containing 2.5% (v/v) crop oil concentrate so that the final application solutions contained 1.25% (v/v) crop oil concentrate.
Applications were made by injecting with a pipetter appropriate amounts of the application solutions, individually and sequentially, into the aqueous layer of the paddy. Control plants were treated in the same manner with the solvent blank. Applications were made so that all treated plant material received the same concentrations of acetone and crop oil concentrate.
The treated plants and control plants were placed in a greenhouse as described above and water was added as needed to maintain a paddy flood. After approximately 3 weeks the condition of the test plants as compared with that of the untreated plants was determined visually and scored on a scale of 0 to 100 percent where 0 corresponds to no injury or growth inhibition and 100 corresponds to complete kill. […]

Regarding `COc1c(Cl)ccc(-c2nc(C(=O)O)c(Cl)c(N)c2F)c1F` [Compound A Acid, 4-amino-3-chloro-6-(4-chloro-2-fluoro-3-methoxyphenyl)-5-fluoropyridine-2-carboxylic acid], the “Visual Weed Control (%) Obs” value reads like this: (8.75 g ae/ha, 21 DAA) 0%; (17.5 g ae/ha, 21 DAA) 0%; (35 g ae/ha, 21 DAA) 0%; (42.4 g ae/ha, 20 DAA) 0%; (84.8 g ae/ha, 20 DAA) 0%.
As to `COc1c(Cl)ccc(-c2nc(C(=O)OCc3ccccc3)c(Cl)c(N)c2F)c1F` [Compound A Benzyl Ester, benzyl ester of 4-amino-3-chloro-5-fluoro-6-(4-chloro-2-fluoro-3-methoxy-phenyl)pyridine-2-carboxylic acid], the “Visual Weed Control (%) Obs” value (8.75 g ae/ha, 21 DAA) was found to be 0%; the “Visual Weed Control (%) Obs” value (17.5 g ae/ha, 21 DAA) is 0%; the “Visual Weed Control (%) Obs” value (35 g ae/ha, 20 DAA) came to 0%; the “Visual Weed Control (%) Obs” value (35 g ae/ha, 21 DAA) is 0%; the “Visual Weed Control (%) Obs” value (70 g ae/ha, 20 DAA) was determined as 0%.
Turning to `CCC(=O)Nc1ccc(Cl)c(Cl)c1` [Propanil, N-(3,4-dichlorophenyl)propanamide, reference compound], the “Visual Weed Control (%) Obs” value stood at 50% (1680 g ai/ha, 21 DAA) and 90% (3360 g ai/ha, 21 DAA).
